Reference: PubChem BioAssay (NCI)
Values joined by “and” are separate entries in the source; they are usually repeats but may differ in a detail not shown here. Equal values may be shown once.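 Growth conditions: 96-well plates. Treatment: test compound, 48 hours, 5 concentrations. Analysis: linear interpolation between bracketing concentrations; unreached endpoints set to highest concentration. At the GI50, growth is halved. TGI denotes the concentration required for complete inhibition of growth.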

Assays:
Test in all cases: NCI anticancer screen, dose series, 48 h
SR leukemia = test system: SR leukemia
HCT-116 colon = test system: HCT-116 colon
A549 NSCLC = test system: A549 NSCLC
A498 renal = test system: A498 renal
SNB-19 CNS = test system: SNB-19 CNS
U251 CNS = test system: U251 CNS
NCI-H226 lung = test system: NCI-H226 lung
786-0 renal = test system: 786-0 renal
SK-MEL-5 melanoma = test system: SK-MEL-5 melanoma
CAKI-1 renal = test system: CAKI-1 renal

Structure (SMILES)	TGI (SR leukemia)	TGI (HCT-116 colon)	TGI (A549 NSCLC)	TGI (A498 renal)	TGI (SNB-19 CNS)	TGI (U251 CNS)	TGI (NCI-H226 lung)	TGI (786-0 renal)	TGI (SK-MEL-5 melanoma)	TGI (CAKI-1 renal)	GI50 (SR leukemia) [µM]	GI50 (HCT-116 colon)	GI50 (A549 NSCLC)	GI50 (A498 renal)	GI50 (SNB-19 CNS)	GI50 (U251 CNS)	GI50 (NCI-H226 lung)	GI50 (786-0 renal)	GI50 (SK-MEL-5 melanoma)	GI50 (CAKI-1 renal)
COc1ccc(OC)c(-c2cc(=O)c3c(OC)c(OC)c(OC)c(OC)c3o2)c1	> 100 µM	> 100 µM	> 100 µM	> 100 µM	> 100 µM	> 100 µM	77.8 µM	92.2 µM	39.1 µM	> 100 µM	–	–	–	–	–	–	–	–	–	–
COc1cc(-c2ncn(/C=C\C(=O)OC(C)C)n2)cc(C(F)(F)F)c1	14.3 µM and > 100 µM	1.58 µM and 11.3 µM	11.6 µM and 8.63 µM	0.673 µM and 0.0916 µM	13.5 µM and 14.9 µM	5.24 µM and 11.4 µM	0.64 µM and 1.66 µM	2.61 µM and 3.25 µM	1.8 µM and 2.72 µM	12.7 µM and 5.52 µM	0.0354	0.0528 µM and 0.0688 µM	0.0609 µM and 0.0783 µM	0.0364 µM and < 0.0144 µM	0.142 µM and 0.253 µM	0.0335 µM and 0.0683 µM	0.0164 µM and 0.031 µM	0.101 µM and 0.098 µM	0.274 µM and 0.11 µM	46.4 nM and 33.1 nM
O=C(Nc1nc2ccc(F)cc2s1)c1cccnc1Nc1ccc(Cl)cc1	9.31 µM	> 29.2 µM	> 33.7 µM	5.46 µM	> 100 µM	> 100 µM	> 100 µM	> 100 µM	3.38 µM	> 30.8 µM	2.28	1.99 µM	3.35 µM	1.8 µM	3.83 µM	2.88 µM	2.97 µM	2.93 µM	1.39 µM	2560 nM
NC1=NCCN1CC(=O)O	> 10000 µM	> 10000 µM	> 10000 µM	> 10000 µM	> 10000 µM	> 10000 µM	> 10000 µM	> 10000 µM	> 10000 µM	> 10000 µM	> 10000	> 10000 µM	> 10000 µM	> 10000 µM	> 10000 µM	> 10000 µM	> 10000 µM	> 10000 µM	> 10000 µM	–
Cc1cc(O)cc(C)c1/C=C/c1cncc(-c2nn[nH]n2)c1	> 25 µM	> 25 µM	> 25 µM	> 25 µM	> 25 µM	> 25 µM	> 25 µM	> 25 µM	> 25 µM	> 25 µM	> 25	> 25 µM	> 25 µM	> 25 µM	> 25 µM	> 25 µM	> 25 µM	> 25 µM	> 25 µM	> 25000 nM
Nc1c(C(=O)c2ccc(CCCN3CCOCC3)cc2)cnn1-c1ccc(F)cc1	> 25 µM	> 25 µM	> 25 µM	> 25 µM	> 25 µM	> 25 µM	> 25 µM	> 25 µM	24.3 µM	> 25 µM	> 20.4	> 25 µM	> 25 µM	> 14.5 µM	> 25 µM	> 25 µM	> 15.2 µM	> 25 µM	8.01 µM	> 25000 nM
